Source: the supplement of paper PMC10307832

Key:
Experiment in all cases: relative viability (nuclei count vs DMSO), 5 days (fraction); higher = more cells survive
Decitabine + Bortezomib = compound: Nc1ncn([C@H]2C[C@H](O)[C@@H](CO)O2)c(=O)n1 [Decitabine] + CC(C)C[C@H](NC(=O)[C@H](Cc1ccccc1)NC(=O)c1cnccn1)B(O)O [Bortezomib] (partner 0.002 µM)
Procedure, shortened: (§1)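 For relative viability, nuclei counts in treated wells were divided by those in vehicle wells. Lung cancer cell lines had been pin-tool dosed in 1536-well plates the day after seeding and cultured for 5 days, then fixed and stained in one step (final 0.05% Triton X-100, 1% formaldehyde, 1 ug/ml Hoechst) and imaged at 4×. Doses were one drug alone or a fixed anchor-drug dose plus five library-drug doses (not always all listed) in √10 steps, and values are duplicate-plate medians.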

[1] = compound: O=C(C[C@H]1NCCC[C@@H]1O)Cn1cnc2cc(Br)c(Cl)cc2c1=O (racemic) [Halofuginone] + CC1(C)CCC(c2ccc(Cl)cc2)=C(CN2CCN(c3ccc(C(=O)NS(=O)(=O)c4ccc(N[C@H](CCN5CCOCC5)CSc5ccccc5)c(S(=O)(=O)C(F)(F)F)c4)cc3)CC2)C1 [Navitoclax] (partner 0.5 µM)
Procedure, shortened: as §1

Cediranib + Luminespib = compound: COc1cc2c(Oc3ccc4[nH]c(C)cc4c3F)ncnc2cc1OCCCN1CCCC1 [Cediranib] + CCNC(=O)c1noc(-c2cc(C(C)C)c(O)cc2O)c1-c1ccc(CN2CCOCC2)cc1 [Luminespib] (partner 0.01 µM)
Procedure, shortened: as §1

Cediranib + Pemetrexed = compound: COc1cc2c(Oc3ccc4[nH]c(C)cc4c3F)ncnc2cc1OCCCN1CCCC1 [Cediranib] + Nc1nc2[nH]cc(CCc3ccc(C(=O)N[C@@H](CCC(=O)O)C(=O)O)cc3)c2c(=O)[nH]1 [Pemetrexed] (partner 0.2 µM)
Procedure, shortened: as §1

Cell Line	relative viability (Decitabine + Bortezomib; first compound 0.04 µM)	relative viability (Decitabine + Bortezomib; first compound 0.1265 µM)	relative viability (Decitabine + Bortezomib; first compound 0.4 µM)	relative viability (Decitabine + Bortezomib; first compound 1.265 µM)	relative viability (Decitabine + Bortezomib; first compound 4 µM)	relative viability ([1]; first compound 0.001 µM)	relative viability ([1]; first compound 0.003162 µM)	relative viability ([1]; first compound 0.01 µM)	relative viability ([1]; first compound 0.03162 µM)	relative viability ([1]; first compound 0.1 µM)	relative viability (Cediranib + Luminespib; first compound 0.04 µM)	relative viability (Cediranib + Luminespib; first compound 0.1265 µM)	relative viability (Cediranib + Luminespib; first compound 0.4 µM)	relative viability (Cediranib + Luminespib; first compound 1.265 µM)	relative viability (Cediranib + Luminespib; first compound 4 µM)	relative viability (Cediranib + Pemetrexed; first compound 0.04 µM)	relative viability (Cediranib + Pemetrexed; first compound 0.1265 µM)	relative viability (Cediranib + Pemetrexed; first compound 0.4 µM)	relative viability (Cediranib + Pemetrexed; first compound 4 µM)	relative viability (Cediranib + Pemetrexed; first compound 1.265 µM)
EBC-1	0.395	0.406	0.29	0.268	0.257	0.535	0.35	0.274	0.244	0.109										
EKVX	0.71	0.776	0.798	0.383	0.381	1.06	0.971	0.984	0.905	0.797	0.965	0.969	0.822	0.742	0.995	0.512	0.412	0.384	0.441	
EMC-BAC-2	1.04	1.13	0.754	0.747	0.632	1.14	1.29	1.14	1.13	0.87	1.15	1.3	1.13	1.18	1.16	0.565	0.47	0.433	0.477	0.464
EPLC-272H	0.884	0.57		0.584	0.418	1.14	1.22	0.945	1.21	1.17	0.32		0.243		0.228	0.361	0.345	0.375	0.282	0.37
H3255	0.294	0.751	0.479	0.521	0.705	0.541	0.481	0.548	0.495	0.553	0.83		0.879	0.709	0.992	0.588	0.542	0.567	0.54	0.533
HARA	0.819	0.7	0.511	0.431	0.308	1.14	1.11	1.14	1.12	1.14	0.822		0.528	0.775	1.09	0.194	0.248	0.28	0.299	0.303
HCC-15	0.936	0.891	0.381	0.467	0.493	0.704	0.732	0.686	0.651	0.593	0.188		0.261	0.225	0.425	0.209	0.222	0.226	0.22	0.218
HCC-44	0.821	0.898	0.536	0.602	0.548	0.949	1.02	0.968	1.02	0.568			0.986	1.07	0.843	0.695	0.589	0.637	0.682	0.656
HCC-78	0.52	0.517	0.435	0.385	0.328	0.75	0.758	0.725	0.817	0.435						0.912	0.879	0.901	0.901	0.899
